Molecules are shown by their SMILES.

Results on 23 molecules are retold here after patent US20170066717A1, “NEW PHENYLAZETIDINECARBOXYLATE OR -CARBOXAMIDE COMPOUNDS” (INVENTIVA, priority 2014, published 2017).

Assay [1] concerns the target T1, NURR-1/RXRγ (Homo sapiens, UniProt P48443).
T1 construct: expressed in transfected cells; host or cells: Cos-7 cells
Kind of assay: Transactivation test, NURR-1-Gal4/RXRγ, luciferase reporter in Cos-7 cells. To be noted: for Emax: COS-7, induction level relative to reference XCT0135908 at 2×10^−5 M (=100%), read-out: hNurr1_RXRgFL Emax (%); for EC50: Cos-7 cells, NURR-1-Gal4/RXRγ, luciferase reporter, read-out: hNurr1_RXRgFL EC50. It counts as cell-based. Here is the method:
(§1) The ability of the compounds according to the invention to behave as an activator of the heterodimers formed by the NURR-1 nuclear receptor and the RXR nuclear receptors was measured by means of an in vitro test. A transactivation test was used as primary selection (screening) test. Cos-7 cells were cotransfected with a plasmid expressing a chimera of the human NURR-1-Gal4 receptor, a plasmid expressing the human RXR receptor (RXRα or RXRγ receptor) and a 5Gal4pGL3-TK-Luc reporter plasmid. The transfctions were carried out using a chemical agent (Jet PEI). The transfected cells were distributed into 384-well plates and left to stand for 21 hours. At time 24 hours the culture medium was changed. The test products were added (final concentration of between 10^''4 and 3×10^-10 M) to the culture medium. After incubation overnight, the lucifeiase expression was measured after addition of SteadyGlo according to the instructions of the manufacturer (Promega). […] The induction levels (Emax) were calculated relative to the basal activity of each heterodimer.
Background: In a reporter assay the amount or activity of a reporter protein is the signal.

Assay [2] deals with T2, NURR-1/RXRα (Homo sapiens, UniProt P19793).
T2 construct: expressed in transfected cells; host or cells: Cos-7 cells
T2 sequence (P19793 whole entry): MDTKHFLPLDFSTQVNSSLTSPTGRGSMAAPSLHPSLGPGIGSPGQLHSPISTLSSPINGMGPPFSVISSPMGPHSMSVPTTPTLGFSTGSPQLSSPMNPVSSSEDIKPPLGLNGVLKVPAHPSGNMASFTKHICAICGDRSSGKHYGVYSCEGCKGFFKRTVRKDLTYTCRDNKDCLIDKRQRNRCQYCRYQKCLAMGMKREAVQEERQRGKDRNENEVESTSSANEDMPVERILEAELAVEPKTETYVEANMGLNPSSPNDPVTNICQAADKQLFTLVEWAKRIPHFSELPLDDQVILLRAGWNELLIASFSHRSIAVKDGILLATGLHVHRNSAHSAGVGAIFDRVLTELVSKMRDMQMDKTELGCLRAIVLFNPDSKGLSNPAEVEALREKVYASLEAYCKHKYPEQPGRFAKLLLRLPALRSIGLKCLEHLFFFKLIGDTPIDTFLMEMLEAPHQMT
T2 sequence (P43354 whole entry partner): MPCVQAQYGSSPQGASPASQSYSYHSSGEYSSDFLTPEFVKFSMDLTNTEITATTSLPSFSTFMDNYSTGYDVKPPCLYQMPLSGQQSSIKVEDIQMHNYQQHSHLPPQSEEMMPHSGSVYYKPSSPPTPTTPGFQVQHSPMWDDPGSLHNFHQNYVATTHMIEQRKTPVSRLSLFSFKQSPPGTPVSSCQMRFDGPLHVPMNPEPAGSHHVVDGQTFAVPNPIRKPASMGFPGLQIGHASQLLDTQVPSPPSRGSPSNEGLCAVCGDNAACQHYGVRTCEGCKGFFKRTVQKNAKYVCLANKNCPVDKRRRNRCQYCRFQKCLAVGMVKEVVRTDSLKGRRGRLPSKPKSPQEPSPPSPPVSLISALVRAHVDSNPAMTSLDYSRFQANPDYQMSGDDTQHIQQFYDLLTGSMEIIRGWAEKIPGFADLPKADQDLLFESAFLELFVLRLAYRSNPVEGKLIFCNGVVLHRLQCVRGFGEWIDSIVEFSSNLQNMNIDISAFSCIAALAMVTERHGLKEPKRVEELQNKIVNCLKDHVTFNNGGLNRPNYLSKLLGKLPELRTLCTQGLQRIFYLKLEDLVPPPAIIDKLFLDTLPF
T2 sequence (P04386 1-147 partner limits assumed): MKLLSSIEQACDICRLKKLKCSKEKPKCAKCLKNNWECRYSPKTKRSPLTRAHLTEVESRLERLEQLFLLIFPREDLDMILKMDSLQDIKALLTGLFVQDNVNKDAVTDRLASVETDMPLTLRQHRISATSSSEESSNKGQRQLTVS
Description: Transactivation test, NURR-1-Gal4/RXRα, luciferase reporter in Cos-7 cells. To be noted: for Emax: COS-7, induction level relative to reference XCT0135908 at 2×10^−5 M (=100%), read-out: hNurr1_RXRaFL Emax (%); for EC50: Cos-7 cells, NURR-1-Gal4/RXRα, luciferase reporter, read-out: hNurr1_RXRaFL EC50. The class given is cell-based. The method, then:
as §1

Where [3] appears, read: induction level relative to reference XCT0135908 at 2×10^−5 M (=100%).

T1 sequence (P48443 whole entry): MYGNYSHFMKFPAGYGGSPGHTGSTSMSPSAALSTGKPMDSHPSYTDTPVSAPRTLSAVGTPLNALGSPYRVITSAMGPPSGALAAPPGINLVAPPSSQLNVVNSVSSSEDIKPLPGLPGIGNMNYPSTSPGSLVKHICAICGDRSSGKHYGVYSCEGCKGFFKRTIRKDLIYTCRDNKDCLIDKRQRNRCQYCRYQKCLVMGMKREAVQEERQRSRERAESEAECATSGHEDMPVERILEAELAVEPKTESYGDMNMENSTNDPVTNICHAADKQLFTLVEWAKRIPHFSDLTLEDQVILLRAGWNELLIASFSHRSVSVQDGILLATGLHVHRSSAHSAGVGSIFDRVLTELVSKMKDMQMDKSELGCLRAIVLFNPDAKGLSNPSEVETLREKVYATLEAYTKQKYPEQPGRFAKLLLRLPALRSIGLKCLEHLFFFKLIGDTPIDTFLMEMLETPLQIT
T1 sequence (P43354 whole entry partner): as the sequence (P43354 whole entry partner) above
T1 sequence (P04386 1-147 partner limits assumed): as the sequence (P04386 1-147 partner limits assumed) above

For the molecule `Cc1cc(N2CC(C(=O)O)C2)cc(-n2cc(C)c3cc(C(F)(F)F)ccc32)c1` [Example 49, 1-[3-methyl-5-[3-methyl-5-(trifluoromethyl)indol-1-yl]phenyl]azetidine-3-carboxylic acid], the results for the Emax in assay [1] and in assay [2] were 114% and 99%, respectively. The EC50 in assay [1] and in assay [2] was 1 nM in each case.

With `COc1cc(N2CC(C(=O)O)C2)cc(-n2cc(C)c3cc(C(F)(F)F)ccc32)c1` [Example 51, 1-[3-methoxy-5-[3-methyl-5-(trifluoromethyl)indol-1-yl]phenyl]azetidine-3-carboxylic acid], in assay [1], the Emax is 106% and the EC50 amounted to 29 nM. For the same molecule, in assay [2], the maximal effect (Emax) amounted to 91% and the EC50 worked out at 17 nM.

For the molecule `Cc1cn(-c2cc(OC(F)(F)F)cc(N3CC(C(=O)O)C3)c2)c2ccc(C(F)(F)F)cc12` [Example 52, 1-[3-[3-methyl-5-(trifluoromethyl)indol-1-yl]-5-(trifluoromethoxy)phenyl]azetidine-3-carboxylic acid], the Emax in assay [1] amounted to 117%; in assay [2] it was 86%. The EC50 in assay [1] is 117 nM; in assay [2] it was 83 nM.

For `Cc1cn(-c2cc(C(C)C)cc(N3CC(C(=O)O)C3)c2)c2ccc(C(F)(F)F)cc12` [Example 53, 1-[3-isopropyl-5-[3-methyl-5-(trifluoromethyl)indol-1-yl]phenyl]azetidine-3-carboxylic acid], in assay [1], the maximal effect (Emax) came out at 76% and the EC50 was 212 nM. Besides, in assay [2], the Emax amounted to 83% and the EC50 came out at 141 nM.

As to `Cc1cn(-c2cc(OC(C)C)cc(N3CC(C(=O)O)C3)c2)c2ccc(C(F)(F)F)cc12` [Example 54, 1-[3-isopropoxy-5-[3-methyl-5-(trifloruomethyl)indol-1-yl]phenyl]azetidine-3-carboxylic acid], the Emax came out at 100% in assay [1] and 76% in assay [2]. Besides, the concentration for a half-maximal effect (EC50) in assay [1] came out at 2240 nM; in assay [2] it was 1400 nM.

Take `Cc1cc(N2CC(C)(C(=O)O)C2)cc(-n2cc(C)c3cc(C(F)(F)F)ccc32)c1` [Example 55, 3-methyl-1-[3-methyl-5-[3-methyl-5-(trifluoromethyl)indol-1-yl]phenyl]azetidine-3-carboxylic acid]: the maximal effect (Emax) in assay [1] was found to be 73%; in assay [2], 80%. Moreover, the concentration giving a half-maximal response (EC50) in assay [1] is 218 nM; in assay [2], 189 nM.

With `Cc1cn(-c2cc(N3CC(C(=O)O)C3)cc(C(C)(C)C)c2)c2ccc(C(F)(F)F)cc12` [Example 56, 1-[3-tert-butyl-5-[3-methyl-5-(trifluoromethyl)indol-1-yl]phenyl]azetidine-3-carboxylic acid], in assay [1], the Emax worked out at 38% and the EC50 amounted to 1080 nM. Further, in assay [2], the Emax was found to be 46% and the EC50 is more than 5000 nM.

For the molecule `Cc1cc(N2CC(C(=O)O)C2)cc(-n2cc(Cl)c3cc(C(F)(F)F)ccc32)c1` [Example 57, 1-[3-[3-chloro-5-(triflurooemthyl)indol-1-yl]-5-methylphenyl]azetidine-3-carboxylic acid], the figures for the EC50 in assay [1] and in assay [2] were 2 nM and 1 nM, respectively. The “hNurr1_RXRgFL Emax (%)” value in assay [1] (setting [3]) is given as 114%. The “hNurr1_RXRaFL Emax (%)” value in assay [2] (setting [3]) is 126%.

In the case of `Cc1cn(S(=O)(=O)c2cccc(N3CC(C(=O)O)C3)c2)c2ccc(C(F)(F)F)cc12` [Example 59, 1-[3-[3-methyl-5-(trifluoromethyl)indol-1-yl]sulfonylphenyl]azetidine-3-carboxylic acid], in assay [1], the maximal effect (Emax) is 39% and the half-maximal effective concentration (EC50) stood at 3580 nM. For the same molecule, in assay [2], the Emax worked out at 68% and the EC50 is 1380 nM.

On to `Cc1cc(N2CC(C(=O)O)C2)cc(S(=O)(=O)n2cc(C)c3cc(C(F)(F)F)ccc32)c1` [Example 60, 1-[3-methyl-5-[3-methyl-5-(trifluoromethyl)indol-1-yl]sulfonylphenyl]azetidine-3-carboxylic acid], for which the Emax in assay [1] is 24%; in assay [2], 40%. The results for the concentration for a half-maximal effect (EC50) in assay [1] and in assay [2] were 1700 nM and 898 nM, respectively.

Consider `CN1CC(C)(C)Oc2cc(C(F)(F)F)cc(-c3cccc(N4CC(C(=O)O)C4)c3)c21` [Example 63, 1-[3-[2,2,4-trimethyl-7-(trifluoromethyl)-3H-1,4-benzoxazine-5-yl]phenyl]azetidine-3-carboylic acid], for which, in assay [1], the maximal response (Emax) came out at 82% and the EC50 was determined as 5 nM. Also, in assay [2], the Emax is 86% and the concentration for a half-maximal effect (EC50) came out at 2 nM.

Consider `CCCC1CNc2c(cc(C(F)(F)F)cc2-c2cccc(N3CC(C(=O)O)C3)c2)O1` (centres unmarked) [Example 67, 1-[3-[2-propyl-7-(trifluoromethyl)-3,4-dihydro-2H-1,4-benzoxazin-5-yl]phenyl]azetidine-3-carboxylic acid], for which, in assay [1], the Emax was found to be 82% and the EC50 was determined as 28 nM. Moreover, in assay [2], the Emax is 67% and the EC50 was found to be 25 nM.

For `CCCNc1ccc(C(C)C)cc1-c1cccc(N2CC(C(=O)O)C2)c1` [Example 68, 1-[3-[5-isopropyl-2-(propylamino)phenyl]phenyl]azetidine-3-carboxylic acid], in assay [1], the maximum response (Emax) stood at 143% and the concentration giving a half-maximal response (EC50) is 12 nM. In assay [2], the Emax came to 127% and the EC50 amounted to 9 nM.

For the molecule `CC(C)c1cc2c(c(-c3cccc(N4CC(C(=O)O)C4)c3)c1)CCC(C)(C)O2` [Example 70, 1-[3-(7-isopropyl-2,2-dimethylchroman-5-yl)phenyl]azetidine-3-carboxylic acid], in assay [1], the maximum response (Emax) amounted to 120% and the EC50 worked out at 12 nM. In assay [2], the maximum response (Emax) turned out to be 104% and the half-maximal effective concentration (EC50) was determined as 9 nM.

Consider `O=C(O)C1CN(c2cccc(-c3cc(C(F)(F)F)cc(Cl)n3)c2)C1` [Example 74, 1-[3-[6-chloro-4-(trifluoromethyl)2-pyridyl]phenyl]azetidine-3-carboxylic acid], for which, in assay [1], the Emax stood at 86% and the EC50 was 223 nM. Moreover, in assay [2], the Emax is 121% and the concentration for a half-maximal effect (EC50) amounted to 185 nM.

As to `CC(C)(C)c1cc(F)cc(-c2cccc(N3CC(C(=O)O)C3)c2)c1` [Example 75, 1-[3-(3-tert-butyl-5-fluorophenyl)phenyl]azetidine-3-carboxylic acid], in assay [1], the Emax worked out at 85% and the concentration giving a half-maximal response (EC50) is 40 nM. In assay [2], the maximal effect (Emax) was found to be 106% and the EC50 is 57 nM.

On to `O=C(O)C1CN(c2cccc(-c3ccc(Cl)c(C(F)(F)F)n3)c2)C1` [Example 76, 1-[3-[5-chloro-6-(trifluromethyl)-2-pyridyl]phenyl]azetidine-3-carboxylic acid], for which, in assay [1], the Emax was 51% and the EC50 came to 2560 nM. Moreover, in assay [2], the Emax was found to be 71% and the EC50 stood at 741 nM.

In the case of `O=C(O)C1CN(c2cccc(-c3cnc(Cl)c(C(F)(F)F)c3)c2)C1` [Example 77, 1-[3-[6-chloro-5-(trifluoromethyl)-3-pyridyl]phenyl]azetidine-3-carboxylic acid], the maximal response (Emax) came to 105% in assay [1] and 67% in assay [2]. Also, the values for the 50% effective concentration (EC50) in assay [1] and in assay [2] were 1200 nM and 423 nM, respectively.

On to `O=C(O)C1CN(c2cccc(-c3cc(Cl)nc(C(F)(F)F)c3)c2)C1` [Example 78], for which the values for the Emax in assay [1] and in assay [2] were 98% and 93%, respectively. Moreover, the results for the EC50 in assay [1] and in assay [2] were 339 nM and 207 nM, respectively.

For `CN(C)c1nc(-c2cccc(N3CC(C(=O)O)C3)c2)cc(C(F)(F)F)n1` [Example 79, 1-[3-[2-(dimethylamino)-6-(trifluoromethyl)pyrimidin-4-yl]phenyl]azetidine-3-carboxylic acid], in assay [1], the maximal effect (Emax) was found to be 88% and the concentration giving a half-maximal response (EC50) came out at 543 nM. In addition, in assay [2], the Emax came out at 115% and the EC50 amounted to 177 nM.

For the molecule `CN(C)c1cc(C(F)(F)F)cc(-c2cccc(N3CC(C(=O)O)C3)c2)n1` [Example 80, 1-[3-[6-(dimethylamino)-4-(trifluoromethyl)2-pyridyl]phenyl]azetidine-3-carboxylic acid], in assay [1], the Emax was found to be 89% and the half-maximal effective concentration (EC50) amounted to 335 nM. Further, in assay [2], the Emax turned out to be 104% and the EC50 came out at 316 nM.

In the case of `CC(C)(C)c1cc(-c2cccc(N3CC(C(=O)O)C3)c2)nc(C(C)(C)C)n1` [Example 81, 1-[3-(2,6-di-tert-butylpyrimidin-4-yl)phenyl]azetidine-3-carboxylic acid], in assay [1], the Emax worked out at 107% and the EC50 was 112 nM. Further, in assay [2], the Emax was found to be 108% and the EC50 was found to be 50 nM.

Take `O=C(O)C1CN(c2cccc(-c3cc(OC(F)(F)F)cc4cccnc34)c2)C1` [Example 83, 1-[3-[6-(trifluoromethoxy)-8-quinolyl]phenyl]azetidine-3-carboxylic acid]: the figures for the Emax in assay [1] and in assay [2] were 68% and 67%, respectively. The half-maximal effective concentration (EC50) in assay [1] came out at 596 nM; in assay [2], 282 nM.

Broadly, the Emax is the size of the effect at its maximum, as opposed to the concentration needed. A word on the EC50: it is the concentration at which the effect is half-maximal.
